According to patent publication US9969970B2, “DNA-cell conjugates” (The Regents of the University of California, priority 2009, dated 2018):
{Phos} = phosphine group for Staudinger ligation to cell-surface azides

Assays:
Jurkat cells [1] = experiment: Bulk cell acidification control with rotenone; assay type: cell-based; details: 1 μM rotenone, low-buffered media, ~10^6 cells/mL, 37° C.
Method: (§1) Incubation with rotenone would be expected to interfere with the mitochondrial electron transport chain, causing cells to shift to lactic acid fermentation to complete the glycolytic cycle. The resulting excretion of lactic acid should then increase the rate of acidification in the cellular environment. In the experiment, captured cells were first incubated under normal conditions to establish a baseline rate of acidification (˜8.8 milli-pH/min) under aerobic metabolism.

Jurkat cells [2] = experiment: Single cell acidification on the bifunctional microelectrode array, rotenone stimulation; assay type: cell-based
Method: Metabolic monitoring was accomplished as follows: Cells were suspended at a concentration of 10^6/ml, and the suspension was flowed into the microfluidic device. Cell suspensions were flowed into the channel using 1 mL syringes with Teflon tubing. Where Jurkat and primary T cells were monitored simultaneously they were labeled with CellTracker Green and Red dyes, respectively, as previously described and mixed in an equal ratio. Following a 5 min incubation to allow DNA-based cell capture, the unbound cells were rinsed away (5 ul/min for 3 min) with the low-buffered media. After rinsing, the pH response was monitored electrochemically for 10 min. After this recording, cells were released from the electrodes by heating the device to 55° C. and applying a strong rinse (200 uL/min) with the low-buffered media. Once rinsed and allowed to return to 37° C., the device could be reloaded with cells. This allowed for multiple measurements to be taken with a single cell preparation.
Voltage measurements were recorded between the iridium oxide electrode and a distant FLEXREF Ag/AgCl reference electrode from World Precision Instruments. An identical iridium oxide electrode outside the cell area was used to compensate for any sensor drift. The sensor electrodes were connected to a National Instruments PCI-6031E data acquisition card with 16 bit analog to digital conversion. The digitized signals were monitored using a custom Labview VI, sampling in multiplex at 3 hz. Voltage signals were processed with a 1% Loess filter using Peak Fit software to reduce noise.
as §1

Jurkat cells [3] = experiment: Quantification of DNA attached to the cell surface; assay type: cell-based; details: Ac4ManNAz-fed cells, Staudinger ligation
[4] = 20 bp DNA duplex; ConA-mannose; antibody-antigen; cited from earlier work
Jurkat cells [5] = experiment: Cell capture, morphology and annexin V/PI viability of cells immobilized on biomolecule-coated slides; assay type: cell-based
Method: (§2) FIG. 17. Comparison of biomolecule-based adhesion methods. a) Bulk cell growth rates were first determined in the presence of the adhesion molecules. A suspension of Jurkat cells was combined with ConA or anti-CD3 IgG, and a solution of DNA-coated cells was combined with the complementary DNA strands. At various time points the total number of cells was counted. The control sample was grown in the absence of any adhesion molecules. b) To evaluate cell capture efficiency, solutions of 20 μM FITC-labeled ssDNA, 20 μM FITC-labeled ConA, and 6 μM FITC-labeled anti-CD3 IgG were applied to aldehyde-coated glass slides, and the biomolecules were attached by reductive amination. Solutions containing 1×10^7 Jurkat cell mL^−1 were then introduced onto the resulting slides. […] The cells were evaluated within 1 h by fluorescence microscopy. * ConA and antibody immobilized cells that were partially stained by annexin were counted as cells undergoing apoptosis. […]
The extent of apoptosis of surface bound cells was determined by annexin V/propidium iodide staining (BD Biosciences). […] The cells were imaged by fluorescence microscopy and the number of non-viable cells counted after one hour. […]

Jurkat cells [6] = experiment: AFM measurement of de-adhesion force, cell-cantilever; details: cantilever attachment method
Method: FIG. 18. AFM measurement of de-adhesion force. A) Six sample traces for a single cell are shown in shades of gray, with the average trace shown in black. At zero distance, the cell is in full contact with the cantilever, which is applying a positive force. As distance increases, the cantilever is pulled away from the glass slide surface, causgin the cell-cantilever linkage to rupture and result in the zero-force, no-contact region. The force of d-adhesion was calculated as the difference between the curve minimum and the horizontal no=contact region. B) Adhesion forces were measured under different retraction rates (15.7 and 8.2 μm/s) and contact forces (400 and 200 pN) for the DNA, ConA, and antibody systems. Data were obtained by measuring size de-adhesion events on more than four different cells. Error bards represent one standard deviation.
Our assay to determine the strength of cantilever attachment was designed such that cell-cantilever adhesions were fewer in number, and therefore weaker overall, than DNA-based adhesions between a cell and the complementarily functionalized glass slide. […] The force of de-adhesion was measured for each attachment method using two different retraction rates and two different contact forces (FIG. 18a). The measured force of de-adhesion increased with contact force and retraction rate across all attachment methods, as predicted by the Bell model. […]

Jurkat cells [7] = experiment: Bulk cell growth and morphology in the presence of adhesion molecules; assay type: cell-based; details: adhesion molecule in suspension; DNA-coated cells with complementary sequence
Method: as §2, with “slides. The samples were incubated for 10 min at room temperature and then washed with two portions of phosphate-buffered saline (PBS) before evaluation. c) To evaluate cell viability, cells were immobilized on DNA, ConA, and anti-CD3 IgG coated aldehyde slides.” for “slides.”
The effects of the adhesion molecules on the viability of the cells were assessed using two different methods. […]

Compound: C=C(C)[C@H]1Cc2c(ccc3c2O[C@@H]2COc4cc(OC)c(OC)cc4[C@@H]2C3=O)O1 [rotenone]
- acidification over 60 min compared to identical untreated cells (Jurkat cells [1]): more than twice
- increase in the acidification rate (Jurkat cells [2]; 10 μM rotenone versus baseline): three-fold
- time to increase in acidification rate (Jurkat cells [2]; after addition of 10 μM rotenone): ≤ 1 min
- acidification rate (Jurkat cells [2]; single Jurkat cells after 10 μM rotenone added to channel, baseline ~8.8 milli-pH/min): ~27.7 milli-pH/min

Compound: Phosphine-modified ssDNA: phosphine-modified ssDNA (5′-phos-GTAACGATCCAGCTGTCACT-3′) ligated to cell-surface azides by Staudinger ligation (DNA GTAACGATCCAGCTGTCACT; DNA, 5' {Phos}, backbone not given here)
- ssDNA molecules per cell (Jurkat cells [3]): ≈ 270,000

Compound: concanavalin A [ConA]
- force of one individual linkage [4]: 47 pN
- apoptotic and necrotic cells, annexin V and PI staining (Jurkat cells [5]; 24 and 48 h after immobilization): significantly higher numbers of apoptotic cells
- morphology of immobilized cells (Jurkat cells [5]; after 48 h on coated slides): significant changes
- zero-force attachment events in de-adhesion measurements (Jurkat cells [6]): 12%
- cell growth over a three-day period (Jurkat cells [7]): aggregated and were no longer alive after 12 h
